# In patent publication US20080009418A1, “Selective Inhibitors” (Alchemia LTD., priority 2004, published 2008):
# Experiments:
# Human Melanocortin (MC3) = target: T1, Human Melanocortin (MC3) (Homo sapiens, UniProt P41968); assay: Radioligand binding, human melanocortin MC3 membranes, FlashPlate, [125I]-NDP-αMSH; conditions: compound at 10 μM; for A3 radioligand binding inhibition: human melanocortin MC3 membranes
# T1 construct: purchased Perkin Elmer Biosignal
# Summary of the method: (§1)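 Cloned human receptor membranes were coated onto FlashPlate wells and incubated with radioligand and compound (added from a 0.5 mM DMSO daughter plate) for 1 hour at room temperature in the dark. Scintillation counting gave percent inhibition, with DMSO defining total and reference ligand defining non-specific binding.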
# [1] = target: T2, Human melanin-concentrating hormone (MCH1) (Homo sapiens, UniProt Q99705); assay: Radioligand binding, human melanin-concentrating hormone MCH1 membranes, FlashPlate, [125I]-S36057; conditions: compound at 10 μM; for A6 radioligand binding inhibition: human MCH1 membranes
# T2 construct: purchased Perkin Elmer Biosignal
# T2 sequence (Q99705 whole entry): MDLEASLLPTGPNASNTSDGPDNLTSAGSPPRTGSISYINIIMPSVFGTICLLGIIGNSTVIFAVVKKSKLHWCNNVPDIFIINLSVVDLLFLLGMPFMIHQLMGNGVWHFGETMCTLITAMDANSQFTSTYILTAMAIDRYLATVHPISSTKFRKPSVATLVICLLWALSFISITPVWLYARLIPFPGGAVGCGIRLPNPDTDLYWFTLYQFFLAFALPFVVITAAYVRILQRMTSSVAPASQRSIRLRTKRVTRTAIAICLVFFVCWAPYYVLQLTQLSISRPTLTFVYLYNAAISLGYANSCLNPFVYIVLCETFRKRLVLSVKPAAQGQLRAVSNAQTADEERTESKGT
# Summary of the method: as §1
# Mouse urotensin (mUR2) = target: T3, Mouse urotensin (mUR2) (Mus musculus, UniProt Q8VIH9); assay: Radioligand binding, mouse urotensin mUR2 membranes, FlashPlate, [125I]-Urotensin II; conditions: compound at 10 μM; for A11 radioligand binding inhibition: mouse urotensin mUR2 membranes
# T3 construct: purchased Perkin Elmer Biosignal
# T3 sequence (Q8VIH9 1-385): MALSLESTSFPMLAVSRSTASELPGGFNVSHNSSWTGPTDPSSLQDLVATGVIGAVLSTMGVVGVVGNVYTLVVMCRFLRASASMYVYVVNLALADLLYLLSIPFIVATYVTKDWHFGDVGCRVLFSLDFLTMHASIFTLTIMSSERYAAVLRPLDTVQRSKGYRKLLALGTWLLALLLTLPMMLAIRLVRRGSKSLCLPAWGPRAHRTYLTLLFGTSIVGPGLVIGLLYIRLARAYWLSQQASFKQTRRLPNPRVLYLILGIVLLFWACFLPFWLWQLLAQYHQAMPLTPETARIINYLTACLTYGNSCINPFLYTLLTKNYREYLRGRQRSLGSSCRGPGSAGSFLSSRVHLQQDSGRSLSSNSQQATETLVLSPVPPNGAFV
# Summary of the method: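 Cloned mouse urotensin (mUR2) receptor membranes from Perkin Elmer Biosignal were immobilized in FlashPlate microplates using a proprietary coating. Each well got 19.5 μl buffer, then 0.5 μl of DMSO, reference ligand, or compound. Adding 5 μl of [125I]-Urotensin II, diluted to 5× final concentration in binding buffer, started binding. Plates were sealed with TopSeal-A and incubated 1 hour at room temperature in the dark. Wells were counted for 30 seconds each on a TopCount after a 60-second delay, and percentage inhibition was calculated.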
# Human opioid (ORL1) = target: T4, Human opioid (ORL1) (Homo sapiens, UniProt P41146); assay: Radioligand binding, human opioid ORL1 membranes, FlashPlate, [125I]-Nociceptin; conditions: compound at 10 μM
# T4 construct: purchased Perkin Elmer Biosignal
# T4 sequence (P41146 whole entry): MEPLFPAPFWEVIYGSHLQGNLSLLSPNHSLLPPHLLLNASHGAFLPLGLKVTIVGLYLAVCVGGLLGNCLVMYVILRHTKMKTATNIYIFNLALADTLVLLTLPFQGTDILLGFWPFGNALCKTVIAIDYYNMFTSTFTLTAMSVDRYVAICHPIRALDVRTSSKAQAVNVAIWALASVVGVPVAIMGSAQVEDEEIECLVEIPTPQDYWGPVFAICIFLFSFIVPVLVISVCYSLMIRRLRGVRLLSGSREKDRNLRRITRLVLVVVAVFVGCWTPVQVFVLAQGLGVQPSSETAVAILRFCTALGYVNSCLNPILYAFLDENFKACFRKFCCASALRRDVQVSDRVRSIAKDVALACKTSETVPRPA
# Summary of the method: as §1
# Human neurokinin (NK1) = target: T5, Human neurokinin (NK1) (Homo sapiens, UniProt P25103); assay: Radioligand binding, human neurokinin NK1 membranes, filtration, [125I]-Substance P; conditions: compound at 10 μM; for A8 radioligand binding inhibition: human neurokinin NK1 membranes
# T5 construct: purchased Perkin Elmer Biosignal
# T5 sequence (P25103 whole entry): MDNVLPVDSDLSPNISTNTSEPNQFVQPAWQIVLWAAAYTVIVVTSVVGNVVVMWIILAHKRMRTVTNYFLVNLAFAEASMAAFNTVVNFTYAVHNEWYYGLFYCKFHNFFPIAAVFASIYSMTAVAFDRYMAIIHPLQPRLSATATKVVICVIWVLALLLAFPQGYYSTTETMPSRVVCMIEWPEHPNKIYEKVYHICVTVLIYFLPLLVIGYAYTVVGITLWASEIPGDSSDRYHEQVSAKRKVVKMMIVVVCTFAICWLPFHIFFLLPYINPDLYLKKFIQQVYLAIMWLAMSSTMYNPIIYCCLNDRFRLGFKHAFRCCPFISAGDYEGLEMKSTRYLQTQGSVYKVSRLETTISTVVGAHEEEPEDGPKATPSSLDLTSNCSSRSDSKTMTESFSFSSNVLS
# Summary of the method: (§2)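 Percent inhibition of radioligand binding measured on recombinant human membranes: NK1 with [125I]-Substance P, KOP with [3H]-Diprenorphine. Incubation 1 h at room temperature, then harvest onto 0.3% PEI-soaked filters, cold Tris-HCl pH 7.4 washes and scintillation counting; non-specific binding from reference ligand wells.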
# Human Melanocortin (MC4) = target: T6, Human Melanocortin (MC4) (Homo sapiens, UniProt P32245); assay: Radioligand binding, human melanocortin MC4 membranes, FlashPlate, [125I]-NDP-αMSH; conditions: compound at 10 μM; for A4 radioligand binding inhibition: human melanocortin MC4 membranes
# T6 construct: purchased Perkin Elmer Biosignal
# T6 sequence (P32245 whole entry): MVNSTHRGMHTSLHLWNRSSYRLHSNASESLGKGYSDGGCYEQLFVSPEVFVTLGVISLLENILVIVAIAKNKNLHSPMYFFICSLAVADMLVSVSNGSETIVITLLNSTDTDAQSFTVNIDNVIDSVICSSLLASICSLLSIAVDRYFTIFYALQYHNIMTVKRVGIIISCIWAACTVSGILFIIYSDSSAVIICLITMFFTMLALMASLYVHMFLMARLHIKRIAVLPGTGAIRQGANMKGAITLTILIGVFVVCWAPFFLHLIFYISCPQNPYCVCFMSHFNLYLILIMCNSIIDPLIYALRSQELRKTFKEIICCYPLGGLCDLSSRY
# Summary of the method: as §1
# Human δ-opioid (DOP) = target: T7, Human δ-opioid (DOP) (Homo sapiens, UniProt P41143); assay: Radioligand binding, human δ-opioid (DOP) membranes, FlashPlate, [3H]-Bremazocine; conditions: compound at 10 μM; for A1 radioligand binding inhibition: human δ-opioid (DOP) membranes
# T7 construct: purchased Perkin Elmer Biosignal
# T7 sequence (P41143 whole entry): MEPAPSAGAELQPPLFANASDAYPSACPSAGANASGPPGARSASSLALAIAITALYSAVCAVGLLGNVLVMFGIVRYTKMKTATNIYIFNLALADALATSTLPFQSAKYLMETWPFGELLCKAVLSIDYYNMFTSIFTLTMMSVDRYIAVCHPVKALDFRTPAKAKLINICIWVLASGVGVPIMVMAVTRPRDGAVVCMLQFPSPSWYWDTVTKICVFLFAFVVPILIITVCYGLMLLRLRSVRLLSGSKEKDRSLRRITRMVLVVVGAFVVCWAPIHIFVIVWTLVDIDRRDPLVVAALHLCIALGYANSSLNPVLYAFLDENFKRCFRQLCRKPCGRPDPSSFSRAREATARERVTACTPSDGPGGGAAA
# Summary of the method: as §1
# Human melanocortin (MC5) = target: T8, Human melanocortin (MC5) (Homo sapiens, UniProt P33032); assay: Radioligand binding, human melanocortin MC5 membranes, FlashPlate, [125I]-NDP-αMSH; conditions: compound at 10 μM; for A5 radioligand binding inhibition: human melanocortin MC5 membranes
# T8 construct: purchased Perkin Elmer Biosignal
# T8 sequence (P33032 whole entry): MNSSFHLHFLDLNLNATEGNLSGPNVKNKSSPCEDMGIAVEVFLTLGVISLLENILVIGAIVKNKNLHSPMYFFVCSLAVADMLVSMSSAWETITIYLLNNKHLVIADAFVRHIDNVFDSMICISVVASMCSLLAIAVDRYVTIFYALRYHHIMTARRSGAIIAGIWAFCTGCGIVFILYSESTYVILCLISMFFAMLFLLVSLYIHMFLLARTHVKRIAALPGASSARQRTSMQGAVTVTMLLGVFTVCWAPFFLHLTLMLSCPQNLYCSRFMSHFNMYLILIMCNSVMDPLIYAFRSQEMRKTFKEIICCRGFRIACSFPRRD
# Summary of the method: as §1
# [2] = target: T9, Human neuropeptide Y (NPY-Y1) (Homo sapiens, UniProt P25929); assay: Radioligand binding, human neuropeptide Y NPY-Y1 membranes, FlashPlate, [125I]-PYY; conditions: compound at 10 μM
# T9 construct: purchased Perkin Elmer Biosignal
# T9 sequence (P25929 1-384): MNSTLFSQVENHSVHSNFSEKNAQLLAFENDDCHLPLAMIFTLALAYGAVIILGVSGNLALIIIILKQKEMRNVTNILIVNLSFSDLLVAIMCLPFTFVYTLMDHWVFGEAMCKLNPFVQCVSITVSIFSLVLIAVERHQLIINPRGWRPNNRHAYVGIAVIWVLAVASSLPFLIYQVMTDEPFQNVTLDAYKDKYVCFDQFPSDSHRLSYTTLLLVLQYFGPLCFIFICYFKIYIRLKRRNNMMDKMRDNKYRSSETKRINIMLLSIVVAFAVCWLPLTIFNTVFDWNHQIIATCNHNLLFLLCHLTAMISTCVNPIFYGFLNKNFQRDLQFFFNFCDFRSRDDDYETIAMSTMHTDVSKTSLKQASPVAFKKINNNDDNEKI
# Summary of the method: as §1
# Human μ-opioid (MOP) = target: T10, Human μ-opioid (MOP) (Homo sapiens, UniProt P35372); assay: Radioligand binding, human μ-opioid (MOP) membranes, FlashPlate, [3H]-Naloxone; conditions: compound at 10 μM; for A7 radioligand binding inhibition: human μ-opioid (MOP) membranes
# T10 construct: purchased Perkin Elmer Biosignal
# T10 sequence (P35372 whole entry): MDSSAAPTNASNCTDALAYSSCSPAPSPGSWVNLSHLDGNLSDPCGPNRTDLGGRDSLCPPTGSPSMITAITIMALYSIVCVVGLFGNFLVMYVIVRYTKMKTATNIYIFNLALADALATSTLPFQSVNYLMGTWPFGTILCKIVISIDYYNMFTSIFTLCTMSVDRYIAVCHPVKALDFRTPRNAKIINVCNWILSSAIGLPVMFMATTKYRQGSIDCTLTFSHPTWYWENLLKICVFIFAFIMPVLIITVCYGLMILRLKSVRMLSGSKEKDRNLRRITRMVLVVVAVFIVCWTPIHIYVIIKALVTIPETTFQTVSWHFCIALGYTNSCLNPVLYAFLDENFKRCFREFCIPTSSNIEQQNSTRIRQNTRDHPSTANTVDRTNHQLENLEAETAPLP
# Summary of the method: as §1
# Human κ-Opioid (KOP) = target: T11, Human κ-Opioid (KOP) (Homo sapiens, UniProt P41145); assay: Radioligand binding, human κ-opioid (KOP) membranes, filtration, [3H]-Diprenorphine; conditions: compound at 10 μM; for A2 radioligand binding inhibition: human κ-opioid (KOP) membranes
# T11 construct: purchased Perkin Elmer Biosignal
# T11 sequence (P41145 whole entry): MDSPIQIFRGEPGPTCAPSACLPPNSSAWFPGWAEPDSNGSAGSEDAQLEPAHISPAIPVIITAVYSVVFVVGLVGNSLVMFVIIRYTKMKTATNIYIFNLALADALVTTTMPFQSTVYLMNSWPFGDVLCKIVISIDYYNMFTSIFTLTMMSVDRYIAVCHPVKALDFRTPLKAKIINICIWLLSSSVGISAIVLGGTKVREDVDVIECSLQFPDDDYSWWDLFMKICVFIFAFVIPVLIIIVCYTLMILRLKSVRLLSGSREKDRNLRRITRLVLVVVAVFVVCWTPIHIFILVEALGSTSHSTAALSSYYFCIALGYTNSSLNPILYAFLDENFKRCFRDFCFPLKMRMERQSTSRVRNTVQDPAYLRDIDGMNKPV
# Summary of the method: as §2
# T1 sequence (P41968 whole entry): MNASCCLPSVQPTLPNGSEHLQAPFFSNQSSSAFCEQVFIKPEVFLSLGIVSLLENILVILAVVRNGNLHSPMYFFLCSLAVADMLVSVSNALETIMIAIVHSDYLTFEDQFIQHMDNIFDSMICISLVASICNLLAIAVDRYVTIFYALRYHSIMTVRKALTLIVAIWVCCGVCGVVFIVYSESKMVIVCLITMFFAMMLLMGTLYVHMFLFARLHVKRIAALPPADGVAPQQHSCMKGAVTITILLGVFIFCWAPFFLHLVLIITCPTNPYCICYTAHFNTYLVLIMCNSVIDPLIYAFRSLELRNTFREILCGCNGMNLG
smiles,measurement,setting,value
COC[C@H]1OC(OCCc2ccccc2)[C@H](NC(=O)CCCN)[C@@H](OCc2ccc(-c3ccccc3)cc2)[C@@H]1O (stereo partly shown) [compound 42],A3 radioligand binding inhibition,Human Melanocortin (MC3),− (“−” indicates less than 50% inhibition at 10 μM)
same,A6 radioligand binding inhibition,[1],− (“−” indicates less than 50% inhibition at 10 μM)
same,A11 radioligand binding inhibition,Mouse urotensin (mUR2),− (“−” indicates less than 50% inhibition at 10 μM)
same,A10 radioligand binding inhibition,Human opioid (ORL1); human ORL1 membranes,− (“−” indicates less than 50% inhibition at 10 μM)
same,A8 radioligand binding inhibition,Human neurokinin (NK1),− (“−” indicates less than 50% inhibition at 10 μM)
same,A4 radioligand binding inhibition,Human Melanocortin (MC4),− (“−” indicates less than 50% inhibition at 10 μM)
same,A1 radioligand binding inhibition,Human δ-opioid (DOP),− (“−” indicates less than 50% inhibition at 10 μM)
same,A5 radioligand binding inhibition,Human melanocortin (MC5),+ (“+” indicates greater than 50% inhibition at 10 μM)
same,A9 radioligand binding inhibition,[2]; human NPY-Y1 membranes,− (“−” indicates less than 50% inhibition at 10 μM)
same,A7 radioligand binding inhibition,Human μ-opioid (MOP),− (“−” indicates less than 50% inhibition at 10 μM)
same,A2 radioligand binding inhibition,Human κ-Opioid (KOP),− (“−” indicates less than 50% inhibition at 10 μM)
CO[C@H]1[C@H](O)[C@@H](COCc2cccc(O)c2)OC(OCc2ccccc2)[C@@H]1NC(=O)CCCN (stereo partly shown) [compound 153],"A3 radioligand binding, percentage inhibition",Human Melanocortin (MC3); [125I]-NDP-αMSH,− (“−” indicates less than 50% inhibition at 10 μM)
same,"A6 radioligand binding, percentage inhibition",[1]; [125I]-S36057,− (“−” indicates less than 50% inhibition at 10 μM)
same,"A11 radioligand binding, percentage inhibition",Mouse urotensin (mUR2); [125I]-Urotensin II,− (“−” indicates less than 50% inhibition at 10 μM)
same,"A10 radioligand binding, percentage inhibition",Human opioid (ORL1); [125I]-Nociceptin,− (“−” indicates less than 50% inhibition at 10 μM)
same,"A8 radioligand binding, percentage inhibition",Human neurokinin (NK1); [125I]-Substance P,+ (“+” indicates greater than 50% inhibition at 10 μM)
same,"A4 radioligand binding, percentage inhibition",Human Melanocortin (MC4); [125I]-NDP-αMSH,− (“−” indicates less than 50% inhibition at 10 μM)
same,"A1 radioligand binding, percentage inhibition",Human δ-opioid (DOP); [3H]-Bremazocine,− (“−” indicates less than 50% inhibition at 10 μM)
same,"A5 radioligand binding, percentage inhibition",Human melanocortin (MC5); [125I]-NDP-αMSH,− (“−” indicates less than 50% inhibition at 10 μM)
same,"A9 radioligand binding, percentage inhibition",[2]; [125I]-PYY,− (“−” indicates less than 50% inhibition at 10 μM)
same,"A7 radioligand binding, percentage inhibition",Human μ-opioid (MOP); [3H]-Naloxone,− (“−” indicates less than 50% inhibition at 10 μM)
same,"A2 radioligand binding, percentage inhibition",Human κ-Opioid (KOP); [3H]-Diprenorphine,− (“−” indicates less than 50% inhibition at 10 μM)
CO[C@H]1[C@H](O)[C@@H](COCc2ccccc2)OC(OCc2ccc(-c3ccccc3)cc2)[C@@H]1NC(=O)CCCNC(=N)N (stereo partly shown) [compound 61],A3 radioligand binding inhibition,Human Melanocortin (MC3),− (“−” indicates less than 50% inhibition at 10 μM)
same,A6 radioligand binding inhibition,[1],− (“−” indicates less than 50% inhibition at 10 μM)
same,A11 radioligand binding inhibition,Mouse urotensin (mUR2),− (“−” indicates less than 50% inhibition at 10 μM)
same,A10 radioligand binding inhibition,Human opioid (ORL1); human ORL1 membranes,− (“−” indicates less than 50% inhibition at 10 μM)
same,A8 radioligand binding inhibition,Human neurokinin (NK1),+ (“+” indicates greater than 50% inhibition at 10 μM)
same,A4 radioligand binding inhibition,Human Melanocortin (MC4),− (“−” indicates less than 50% inhibition at 10 μM)
same,A1 radioligand binding inhibition,Human δ-opioid (DOP),− (“−” indicates less than 50% inhibition at 10 μM)
same,A5 radioligand binding inhibition,Human melanocortin (MC5),+ (“+” indicates greater than 50% inhibition at 10 μM)
same,A9 radioligand binding inhibition,[2]; human NPY-Y1 membranes,− (“−” indicates less than 50% inhibition at 10 μM)
same,A7 radioligand binding inhibition,Human μ-opioid (MOP),+ (“+” indicates greater than 50% inhibition at 10 μM)
same,A2 radioligand binding inhibition,Human κ-Opioid (KOP),+ (“+” indicates greater than 50% inhibition at 10 μM)
CSC1O[C@H](COCc2ccc3ccccc3c2)[C@@H](O)[C@@H](OCc2ccc(-c3ccccc3)cc2)[C@H]1NC(=O)CCCNC(=N)N (stereo partly shown) [compound 300],"A3: inhibition of radioligand binding, human melanocortin (MC3)",Human Melanocortin (MC3); [125I]-NDP-αMSH,− (“−” indicates less than 50% inhibition at 10 μM)
same,"A6: inhibition of radioligand binding, human melanin-concentrating hormone (MCH1)",[1]; [125I]-S36057,− (“−” indicates less than 50% inhibition at 10 μM)
same,"A11: inhibition of radioligand binding, mouse urotensin (mUR2)",Mouse urotensin (mUR2); [125I]-Urotensin II,− (“−” indicates less than 50% inhibition at 10 μM)
same,"A10: inhibition of radioligand binding, human opioid (ORL1)",Human opioid (ORL1); [125I]-Nociceptin,− (“−” indicates less than 50% inhibition at 10 μM)
same,"A8: inhibition of radioligand binding, human neurokinin (NK1)",Human neurokinin (NK1); [125I]-Substance P,+ (“+” indicates greater than 50% inhibition at 10 μM)
same,"A4: inhibition of radioligand binding, human melanocortin (MC4)",Human Melanocortin (MC4); [125I]-NDP-αMSH,− (“−” indicates less than 50% inhibition at 10 μM)
same,"A1: inhibition of radioligand binding, human δ-opioid (DOP)",Human δ-opioid (DOP); [3H]-Bremazocine,− (“−” indicates less than 50% inhibition at 10 μM)
same,"A5: inhibition of radioligand binding, human melanocortin (MC5)",Human melanocortin (MC5); [125I]-NDP-αMSH,+ (“+” indicates greater than 50% inhibition at 10 μM)
same,"A9: inhibition of radioligand binding, human neuropeptide Y (NPY-Y1)",[2]; [125I]-PYY,− (“−” indicates less than 50% inhibition at 10 μM)
same,"A7: inhibition of radioligand binding, human μ-opioid (MOP)",Human μ-opioid (MOP); [3H]-Naloxone,− (“−” indicates less than 50% inhibition at 10 μM)
same,"A2: inhibition of radioligand binding, human κ-opioid (KOP)",Human κ-Opioid (KOP); [3H]-Diprenorphine,− (“−” indicates less than 50% inhibition at 10 μM)
N=C(N)NCCC(=O)NC1C(OCc2ccc(Cl)cc2)OC(COCc2ccc3ccccc3c2)C(O)C1OCc1ccc2ccccc2c1 (stereo not shown) [compound 429],A3: inhibition of radioligand binding,"Human Melanocortin (MC3); [125I]-NDP-αMSH, human MC3 membranes",+ (“+” indicates greater than 50% inhibition at 10 μM)
same,A6: inhibition of radioligand binding,"[1]; [125I]-S36057, human MCH1 membranes",+ (“+” indicates greater than 50% inhibition at 10 μM)
same,A11: inhibition of radioligand binding,"Mouse urotensin (mUR2); [125I]-Urotensin II, mouse mUR2 membranes",− (“−” indicates less than 50% inhibition at 10 μM)
same,A10: inhibition of radioligand binding,"Human opioid (ORL1); [125I]-Nociceptin, human ORL1 membranes",− (“−” indicates less than 50% inhibition at 10 μM)
same,A8: inhibition of radioligand binding,"Human neurokinin (NK1); [125I]-Substance P, human NK1 membranes",+ (“+” indicates greater than 50% inhibition at 10 μM)
same,A4: inhibition of radioligand binding,"Human Melanocortin (MC4); [125I]-NDP-αMSH, human MC4 membranes",+ (“+” indicates greater than 50% inhibition at 10 μM)
same,A1: inhibition of radioligand binding,"Human δ-opioid (DOP); [3H]-Bremazocine, human DOP membranes",− (“−” indicates less than 50% inhibition at 10 μM)
same,A5: inhibition of radioligand binding,"Human melanocortin (MC5); [125I]-NDP-αMSH, human MC5 membranes",+ (“+” indicates greater than 50% inhibition at 10 μM)
same,A9: inhibition of radioligand binding,"[2]; [125I]-PYY, human NPY-Y1 membranes",− (“−” indicates less than 50% inhibition at 10 μM)
same,A7: inhibition of radioligand binding,"Human μ-opioid (MOP); [3H]-Naloxone, human MOP membranes",− (“−” indicates less than 50% inhibition at 10 μM)
same,A2: inhibition of radioligand binding,"Human κ-Opioid (KOP); [3H]-Diprenorphine, human KOP membranes",− (“−” indicates less than 50% inhibition at 10 μM)
